Entries after “also recorded” stand apart in the source; their conditions may differ. Where no end group is shown, it is not given here.
Key:
Type in all cases: physicochemical
[1] = Effect of pH on concentration and purity of the peptide in 50 mM sodium acetate buffer (RP-HPLC); conditions: 2.5 mg/mL in 50 mM sodium acetate buffer, pH 3.0, 4.0, 5.0; 4° C. or 37° C., 15 days
Procedure: FIG. 4. Effect of pH on concentration of peptide identified as Seq ID No. 1, in samples formulated and stored at 4° C. (A) and at 37° C. (B).
FIG. 5. Effect of pH on the purity of the peptide identified as Seq ID No. 1, in samples formulated and stored at 37° C.
Three pH values were analyzed: 3.0; 4.0 and 5.0. Samples were filtered and stored at 4° C. or at 37° C., for 15 days. Evaluation of stability and concentration of peptide was carried out by RP-HPLC. Results of concentration of peptide stored at 4° C. or at 37° C., respectively, are shown in FIGS. 4A and 4B, respectively. […] At 37° C., precipitation process is accelerated.
Chemical integrity of peptide (expressed as % purity in RP-HPLC) was greater than 95%, for the samples formulated in three pH values, when these were stored at 4° C., for 15 days.

[2] = Solubility of the peptide in buffers and excipients, determined by RP-HPLC
Procedure: Different ionic species, pH and excipients were evaluated, to achieve the total solubility of the peptide, and a high chemical stability. Solubility of peptide was evaluated with different excipients, which included different ionic salts, sugars, polyols, amino acids and detergents.
First stage of the formulation development included the evaluation of buffer species influence and pH on chemical and physical stability of the peptide.

[3] = Stability of the peptide in 50 mM sodium phosphate buffer pH 7.4 at 37° C. (RP-HPLC, mass spectrometry)
Procedure: FIG. 1. Chromatographic profile of APL-type peptide identified as Seq ID No. 1 dissolved in 50 mM sodium phosphate buffer, pH 7.4. The profile was obtained by reverse phase chromatography (RP-HPLC), (A) time 0, (B) 15 days of storage at 37° C.
APL type peptide was obtained by chemical synthesis. […] To study the causes of such effect, peptide was dissolved in that buffer and stored at 37° C. for 15 days. Subsequently, several aliquots were analyzed periodically by RP-HPLC. Presence of contaminating species was verified, these were purified and analyzed by mass spectrometry, and several fractions were identified that could correspond to degradations.
In order to accelerate the degradation, peptide was incubated under stress conditions that allow the possible degraded species of the peptide to be obtained fast and in high proportions. Fractions collected after RP-HPLC were characterized by mass spectrometry.

[4] = Molecular exclusion chromatography-HPLC of the peptide in water, PBS and sucrose; conditions: dissolved in water (control)
Text: FIG. 3. Molecular exclusion chromatography—HPLC of the peptide of Seq ID No. 1 dissolved in water (A), in phosphate buffered saline (PBS) (B) and in sucrose (C).
In PBS the peptide eluted in a shorter retention time, compared to the sample dissolved in water and in sucrose solution.

In the case of “SIDLKDKYKNIGAKLVQLVANNTNEEA [peptide identified as Seq ID No. 1]”, the “physical stability of peptide” value [1] is reported as “greater at pH 3.0”, the solubility of peptide ([2]; in other ionic species: sodium citrate, sodium glutamate and Tris-HCl) is reported as “very poorly soluble” and the solubility of peptide ([2]; in sodium phosphate buffer (50 mM, pH 7.4)) is reported as “very poorly soluble; also recorded: poorly soluble”. For the same sequence, the solubility of peptide ([2]; in solutions of sucrose or trehalose, peptide 1-10 mg/mL) was “highest solubility”, the solubility of peptide ([2]; sodium acetate buffer (acetic acid and sodium hydroxide), 10-70 mM) was “best solubilized the peptide” and the “degraded species identified by mass spectrometry (fractions 1, 2 and 4)” value ([3]; 50 mM sodium phosphate buffer pH 7.4, 15 days at 37° C.) was “deamidated variants of the peptide”. For the same sequence, the “stability of peptide in solution” value ([3]; 50 mM sodium phosphate buffer, pH 7.4) was “progressively destabilized” and the solubility of peptide [4] was “good solubility”.

From patent publication US20240316147A1, “PHARMACEUTICAL COMPOSITION COMPRISING AN APL TYPE PEPTIDE” (CENTRO DE INGENIERIA GENÉTICA Y BIOTECNOLOGIA, priority 2017, published 2024)
